Literature values in patent US20260216071A1, “NANOPARTICULATE FORMULATION” (NEWIMMUNE II, LLC, priority 2022, published 2026).

absorption following oral administration: well absorbed
Compound: CCCCc1nc(Cl)c(CO)n1Cc1ccc(-c2ccccc2-c2nn[nH]n2)cc1 [Losartan, (2-butyl-4-chloro-1-{[2′-(1H-tetrazol-5-yl)biphenyl-4-yl]methyl}-1H-imidazol-5-yl) methanol]
